In article PMC8048873 (The Plant Journal, 2021):

Target: T1, CERK1 ectodomain (CERK1-ECD; LYK1) (Arabidopsis thaliana, UniProt A8R7E6)
T1 sequence (A8R7E6 24-232): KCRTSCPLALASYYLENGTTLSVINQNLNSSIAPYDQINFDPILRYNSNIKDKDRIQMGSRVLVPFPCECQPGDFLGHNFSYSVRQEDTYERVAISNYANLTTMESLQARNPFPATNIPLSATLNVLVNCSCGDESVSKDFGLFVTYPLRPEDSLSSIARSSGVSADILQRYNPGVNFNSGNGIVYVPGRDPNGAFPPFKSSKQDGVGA
Test: isothermal titration calorimetry
Type: binding
Conditions: 20 mM MES pH 6.5, 150 mM NaCl, 25°C; 50 µM protein in cell, ligand 500 µM or 1 mM; n = 2

Kd: 37.5 ± 10 µM
Structure (SMILES): CC(=O)N[C@H]1[C@H](O[C@H]2[C@H](O)[C@@H](NC(C)=O)[C@H](O[C@H]3[C@H](O)[C@@H](NC(C)=O)C(O)O[C@@H]3CO)O[C@@H]2CO)O[C@H](CO)[C@@H](O[C@@H]2O[C@H](CO)[C@@H](O[C@@H]3O[C@H](CO)[C@@H](O[C@@H]4O[C@H](CO)[C@@H](O)[C@H](O)[C@H]4NC(C)=O)[C@H](O)[C@H]3NC(C)=O)[C@H](O)[C@H]2NC(C)=O)[C@@H]1O (stereo partly drawn) [1,4‐β‐D‐(GlcNAc)6, chitohexaose]
